Entries after “also recorded” stand apart in the source; their conditions may differ.
Assays:
[1] = system: isolated rat aorta; assay: In vitro induction of tolerance to NO releasing compounds (vasorelaxation of pre-exposed aortic rings); format: cell-based; conditions: rings pre-treated with epinephrine and then with 0.44 mM of the same compound
Description: Aortic rings were prepared as described hereinabove, and were exposed to 0.44 mM GTN (vehicle was water:ethanol:propyleneglycol at proportional ratio of 1:1:1) for 1 hour before CCRC construction, to thereby induce tolerance to nitroglycerine. At the end of the tolerance induction period, rings were thrice washed with the path buffer (Krebs-bicrbonate) every 15 minutes for the following hour and then CCRC for vasorelaxation on GTN-induced tolerance rings were constructed for GTN (pretreated versus untreated rings, FIG. 15), in order to verify the ability to induce and measure GTN tolerance induction in vitro
Attempted induction of tolerance to the NO-donating compounds of the present invention was performed under the same conditions as for GTN. Thus, in an exemplary experiment, rings were exposed to 0.44 mM solution of Pet-3 in the attempt to induce tolerance for Pet-3. CCRC were then measured for the vasorelaxing effect of Pet-3 on a group of rings which were pre-exposed to Pet-3 as to induce tolerance to Pet-3, and for an untreated control group. The above protocol was repeated with Pet-2, Pet-7, Pet-8, Pet-12, Pet-24, Pet-43, Pet-149 and Pet-152.

[2] = system: isolated rat aorta; assay: Cross-tolerance studies on aortic rings (GTN / Pet-12 pre-treatment); format: cell-based; conditions: aorta pre-treated with GTN
Description: Cross-tolerance studies were conducted using the same technique described above for measuring vasorelaxation of aortic rings from rats. Two groups of aortic rings samples were pre-treated with GTN, then one group was measured for vasorelaxation by GTN and the second group for vasorelaxation by Pet-12, an exemplary NO-donor according to the present invention. For the opposite cross-tolerance studies, two groups of aortic rings samples were pre-treated with Pet-12, then one group was measured for vasorelaxation by GTN and the second group for vasorelaxation by Pet-12.

[3] = system: Sprague-Dawley rats; assay: Effects of Pet-120 on the endothelial dysfunction of angiotensin II induced hypertension in rats; format: in vivo, rat; conditions: Pet-120 with Ang II for 14 days; aortic rings, acetylcholine curves
Description: Male Sprague-Dawley rats were housed in separate cages and maintained in a temperature regulated room on a 12-hour light/dark cycle. Throughout the experiments, animals had free access to water and standard rat chow. Rats weighing 270 to 310 grams at the beginning of the experiments were anesthetized with ketamine and xylazine (50 and 10 mg/kg, respectively), and an osmotic miniature pump (model 2002; Alza Co) was implanted subcutaneously at the dorsum of the neck. Rats were selected at random and divided into three groups. The first group used as control and received the vehicle alone. The second group received angiotensin II (Ang II, Sigma Chemical Co) infusion (n=3) at a rate of 80 ng/minute or vehicle (n=2; for a period of 14 days. The third group (n=3) received both Ang II (as the second group) and Pet-120 at rate 167 ng/minute for 14 days. At the end of the treatment, rats were anesthetized with ketamine and xylazine (50 and 10 mg/kg, respectively), and both the osmotic pumps and the catheters were removed, and the animals were allowed to recover for 24 hours before initiation of the experiment.
Thereafter a section of the thoracic aorta (with endothelium) was removed from the rats, dissected free of fat and connective tissue in oxygenated Krebs-Hanseliet solution (pH 7.4). […]

`Cc1nc(-c2ccc([N+](=O)[O-])cc2)sc1CCO[N+](=O)[O-]` [Pet-120, 4-Methyl-5-(2-nitrooxy-ethyl)-2-(4-nitro-phenyl)-thiazole] was tested, and the “tolerance induction in vitro (vasorelaxation, pre-treated versus control rings)” value [1] was “absence of tolerance induction; also recorded: lack of tolerance inducement”, the “vasorelaxation in rings made tolerant to GTN (cross-tolerance)” value [2] was “can even induce vasorelaxation in rat aorta of rats after tolerance has been induced therein by chronic use of GTN” and the “vasorelaxation after Ang II induced hypertension” value [3] was “notable capacity to induce vasorelaxation”.

Reference: US8134010B2, “Thiazole-based nitric oxide donors having aryl substituent(s) and uses thereof” (priority 2004, dated 2012)
